Experiments:
[1] = female, rat, in vivo, 40 mg/kg

SMILES: [2H]C([2H])([2H])N(C([2H])([2H])[2H])C([2H])([2H])C([2H])([2H])c1c[nH]c2cccc(O)c12 [psilocin-d10, 3-(2-(bis(methyl-d3)amino)ethyl-1,1,2,2-d4)-1H-indol-4-ol]
- AUC(0-t) [1]: 3630 ng·h/mL
- Cmax [1]: 343 ng/mL
- bioavailability (Sprague Dawley, rat, in vivo, po): ~60%
- reduction in oral concentration (Cmax) in comparison to psilocin after psilocybin (oral, Sprague Dawley rats, molar dose-normalised): 16%
- difference in systemic exposure versus psilocin (rats): ~30%

Source: patent publication US20240293367A1, “METHODS OF TREATING DISORDERS WITH A […]” (Cybin IRL Limited, priority 2023, published 2024)
